Measurements taken from paper PMC9572083, “Hybrids of 1,4-Quinone with Quinoline Derivatives: Synthesis, Biological Activity, and Molecular Docking with DT-Diaphorase (NQO1)” (Molecules, 2022).

tested on: not given; experiment: not given; details: not given

SMILES | melting point
Cc1ccc2cccc(OC3=C(Cl)C(=O)c4ccccc4C3=O)c2n1 [Compound 14b, 2-chloro-3-[(2-methylquinolin-8-yl)oxy]naphthalene-1,4-dione] | 100 to 102 °C
Cc1ccc2cccc(OC3=C(Cl)C(=O)c4cccnc4C3=O)c2n1 [Compound 11b, 6-chloro-7-[(2-methylquinolin-8-yl)oxy]quinoline-5,8-dione] | 110 to 112 °C
Cc1ccc2c(n1)C(=O)C(Oc1cccc3ccc(C)nc13)=C(Cl)C2=O [Compound 12b, 6-chloro-2-methyl-7-[(2-methylquinolin-8-yl)oxy]quinoline-5,8-dione] | 130 to 132 °C

tested on: MDA-MB-231 cells; experiment: Cytotoxic activity, WST-1 assay, breast cancer MDA-MB-231; type: cell-based, human; details: HFF-1 vs MDA-MB-231
Summary of the method: (§1)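 Cells seeded at 5 × 10^4/well in DMEM with 10% FCS at 37 °C, 5% CO2, and exposed 72 h to compounds at 1–100 µg/mL. WST-1 formazan read at 450 nm. IC50 is the µM concentration giving 50% growth inhibition, with Neg. meaning above 30 µM; mean of ≥3 independent triplicate experiments.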

SMILES | SI (IC50 HFF-1/IC50 cancer line) MDA-MB-231
Cc1ccc2cccc(OC3=C(Cl)C(=O)c4ccccc4C3=O)c2n1 [Compound 14b, 2-chloro-3-[(2-methylquinolin-8-yl)oxy]naphthalene-1,4-dione] | 0.58
Cc1ccc2cccc(OC3=C(Cl)C(=O)c4cccnc4C3=O)c2n1 [Compound 11b, 6-chloro-7-[(2-methylquinolin-8-yl)oxy]quinoline-5,8-dione] | 15.87
Cc1ccc2c(n1)C(=O)C(Oc1cccc3ccc(C)nc13)=C(Cl)C2=O [Compound 12b, 6-chloro-2-methyl-7-[(2-methylquinolin-8-yl)oxy]quinoline-5,8-dione] | 6.46

same assay, conditions: Homo sapiens; breast cancer MDA-MB-231, 72 h, WST-1

SMILES | IC50
Cc1ccc2cccc(OC3=C(Cl)C(=O)c4ccccc4C3=O)c2n1 [Compound 14b, 2-chloro-3-[(2-methylquinolin-8-yl)oxy]naphthalene-1,4-dione] | 19200 ± 620 nM
Cc1ccc2cccc(OC3=C(Cl)C(=O)c4cccnc4C3=O)c2n1 [Compound 11b, 6-chloro-7-[(2-methylquinolin-8-yl)oxy]quinoline-5,8-dione] | 1640 ± 150 nM
Cc1ccc2c(n1)C(=O)C(Oc1cccc3ccc(C)nc13)=C(Cl)C2=O [Compound 12b, 6-chloro-2-methyl-7-[(2-methylquinolin-8-yl)oxy]quinoline-5,8-dione] | 1570 ± 190 nM

target: T1, NQO1 (DT-diaphorase, EC 1.6.5.5, human recombinant) (Homo sapiens, UniProt P15559); experiment: NQO1 substrate NADPH recycling enzymatic assay; type: biochemical; details: compound 10 µmol/L, pH 7.4, 25 °C, absorbance at 340 nm
T1 construct: purchased Sigma-Aldrich
T1 sequence (P15559 whole entry): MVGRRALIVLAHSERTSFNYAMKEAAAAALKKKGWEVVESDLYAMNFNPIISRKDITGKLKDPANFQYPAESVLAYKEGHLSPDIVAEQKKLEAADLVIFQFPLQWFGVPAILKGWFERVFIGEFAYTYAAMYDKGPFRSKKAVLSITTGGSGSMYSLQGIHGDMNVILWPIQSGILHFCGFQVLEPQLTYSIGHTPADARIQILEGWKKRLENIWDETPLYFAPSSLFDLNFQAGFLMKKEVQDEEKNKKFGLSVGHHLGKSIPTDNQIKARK
Summary of the method: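 Human recombinant NQO1 (1.4 µg/mL) in 50 mmol/L potassium phosphate, pH 7.4, was tested with compounds at 10 µmol/L. NADPH was dispensed to start the reaction, and A340 was read every 10 s for 5 min at 25 °C. Initial slopes were expressed as µmol NADPH/µmol NQO1/min against compound-free reactions.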

SMILES | NQO1 activity (enzymatic conversion rate)
Cc1ccc2cccc(OC3=C(Cl)C(=O)c4ccccc4C3=O)c2n1 [Compound 14b, 2-chloro-3-[(2-methylquinolin-8-yl)oxy]naphthalene-1,4-dione] | 1260 ± 15 µmol NADPH/µmol NQO1/min
Cc1ccc2cccc(OC3=C(Cl)C(=O)c4cccnc4C3=O)c2n1 [Compound 11b, 6-chloro-7-[(2-methylquinolin-8-yl)oxy]quinoline-5,8-dione] | 1294 ± 51 µmol NADPH/µmol NQO1/min
Cc1ccc2c(n1)C(=O)C(Oc1cccc3ccc(C)nc13)=C(Cl)C2=O [Compound 12b, 6-chloro-2-methyl-7-[(2-methylquinolin-8-yl)oxy]quinoline-5,8-dione] | 1437 ± 42 µmol NADPH/µmol NQO1/min

tested on: Colo-829 cells; experiment: Cytotoxic activity, WST-1 assay, melanoma Colo-829; type: cell-based, human; details: HFF-1 vs Colo-829
Summary of the method: as §1

SMILES | SI (IC50 HFF-1/IC50 cancer line) Colo-829
Cc1ccc2cccc(OC3=C(Cl)C(=O)c4ccccc4C3=O)c2n1 [Compound 14b, 2-chloro-3-[(2-methylquinolin-8-yl)oxy]naphthalene-1,4-dione] | 0.74
Cc1ccc2cccc(OC3=C(Cl)C(=O)c4cccnc4C3=O)c2n1 [Compound 11b, 6-chloro-7-[(2-methylquinolin-8-yl)oxy]quinoline-5,8-dione] | 13.56
Cc1ccc2c(n1)C(=O)C(Oc1cccc3ccc(C)nc13)=C(Cl)C2=O [Compound 12b, 6-chloro-2-methyl-7-[(2-methylquinolin-8-yl)oxy]quinoline-5,8-dione] | 6.01

same assay, conditions: Homo sapiens; melanoma Colo-829, 72 h, WST-1

SMILES | IC50
Cc1ccc2cccc(OC3=C(Cl)C(=O)c4ccccc4C3=O)c2n1 [Compound 14b, 2-chloro-3-[(2-methylquinolin-8-yl)oxy]naphthalene-1,4-dione] | 15000 ± 1030 nM
Cc1ccc2cccc(OC3=C(Cl)C(=O)c4cccnc4C3=O)c2n1 [Compound 11b, 6-chloro-7-[(2-methylquinolin-8-yl)oxy]quinoline-5,8-dione] | 1920 ± 110 nM
Cc1ccc2c(n1)C(=O)C(Oc1cccc3ccc(C)nc13)=C(Cl)C2=O [Compound 12b, 6-chloro-2-methyl-7-[(2-methylquinolin-8-yl)oxy]quinoline-5,8-dione] | 1690 ± 80 nM

tested on: TP53; experiment: Transcriptional activity of TP53 gene in A549 cells (RT-QPCR); type: cell-based, human; details: 24 h, concentration equal to half of IC50
Protocol: (§2) The mechanism of anticancer activity was determined by detection of transcriptional activity of the genes encoding a proliferation marker (H3 histone), cell cycle regulators (p53 and p21), and the mitochondrial apoptosis pathway (BCL-2 and BAX) (Figure 3a–d). The derivatives 11b, 12b, 13b, and 14b were selected for this study.
(§3) Transcriptional activity of genes (TP53, CDKN1A, BAX, and BCL-2) was rated by real-time RT-QPCR using Opticon™ DNA Engine system (MJ Research, Watertown, NY, USA) and QuantTect® SYBR® Green RT-PCR Kit (Qiagen, Hilden, Germany). Cultured cells were incubated with tested compounds for 24 h. RNA was extracted using Quick-RNA™ MiniPrep kit columns (Zymo Research, Irvine, CA, USA). The extracted RNA was assessed qualitatively and quantitatively. The amount and purity of the total RNA in extracts were determined spectrophotometrically (HP8452A apparatus, Hewlett Packard, Waldbronn, Germany).

SMILES | TP53 gene expression
Cc1ccc2cccc(OC3=C(Cl)C(=O)c4ccccc4C3=O)c2n1 [Compound 14b, 2-chloro-3-[(2-methylquinolin-8-yl)oxy]naphthalene-1,4-dione] | slight increase
Cc1ccc2cccc(OC3=C(Cl)C(=O)c4cccnc4C3=O)c2n1 [Compound 11b, 6-chloro-7-[(2-methylquinolin-8-yl)oxy]quinoline-5,8-dione] | significant increase
Cc1ccc2c(n1)C(=O)C(Oc1cccc3ccc(C)nc13)=C(Cl)C2=O [Compound 12b, 6-chloro-2-methyl-7-[(2-methylquinolin-8-yl)oxy]quinoline-5,8-dione] | significant increase

tested on: A549 cells; experiment: Cytotoxic activity, WST-1 assay, lung cancer A549; type: cell-based, human; details: HFF-1 vs A549
Summary of the method: as §1

SMILES | SI (IC50 HFF-1/IC50 cancer line) A549
Cc1ccc2cccc(OC3=C(Cl)C(=O)c4ccccc4C3=O)c2n1 [Compound 14b, 2-chloro-3-[(2-methylquinolin-8-yl)oxy]naphthalene-1,4-dione] | 5.30
Cc1ccc2cccc(OC3=C(Cl)C(=O)c4cccnc4C3=O)c2n1 [Compound 11b, 6-chloro-7-[(2-methylquinolin-8-yl)oxy]quinoline-5,8-dione] | 14.62
Cc1ccc2c(n1)C(=O)C(Oc1cccc3ccc(C)nc13)=C(Cl)C2=O [Compound 12b, 6-chloro-2-methyl-7-[(2-methylquinolin-8-yl)oxy]quinoline-5,8-dione] | 7.10

same assay, conditions: Homo sapiens; lung cancer A549, 72 h, WST-1

SMILES | IC50
Cc1ccc2cccc(OC3=C(Cl)C(=O)c4ccccc4C3=O)c2n1 [Compound 14b, 2-chloro-3-[(2-methylquinolin-8-yl)oxy]naphthalene-1,4-dione] | 2100 ± 290 nM
Cc1ccc2cccc(OC3=C(Cl)C(=O)c4cccnc4C3=O)c2n1 [Compound 11b, 6-chloro-7-[(2-methylquinolin-8-yl)oxy]quinoline-5,8-dione] | 1780 ± 210 nM
Cc1ccc2c(n1)C(=O)C(Oc1cccc3ccc(C)nc13)=C(Cl)C2=O [Compound 12b, 6-chloro-2-methyl-7-[(2-methylquinolin-8-yl)oxy]quinoline-5,8-dione] | 1430 ± 60 nM

tested on: T47D cells; experiment: Cytotoxic activity, WST-1 assay, breast cancer T47D; type: cell-based, human; details: HFF-1 vs T47D
Summary of the method: as §1

SMILES | SI (IC50 HFF-1/IC50 cancer line) T47D
Cc1ccc2cccc(OC3=C(Cl)C(=O)c4ccccc4C3=O)c2n1 [Compound 14b, 2-chloro-3-[(2-methylquinolin-8-yl)oxy]naphthalene-1,4-dione] | 0.50
Cc1ccc2cccc(OC3=C(Cl)C(=O)c4cccnc4C3=O)c2n1 [Compound 11b, 6-chloro-7-[(2-methylquinolin-8-yl)oxy]quinoline-5,8-dione] | 10.76
Cc1ccc2c(n1)C(=O)C(Oc1cccc3ccc(C)nc13)=C(Cl)C2=O [Compound 12b, 6-chloro-2-methyl-7-[(2-methylquinolin-8-yl)oxy]quinoline-5,8-dione] | 5.34

same assay, conditions: Homo sapiens; breast cancer T47D, 72 h, WST-1

SMILES | IC50
Cc1ccc2cccc(OC3=C(Cl)C(=O)c4ccccc4C3=O)c2n1 [Compound 14b, 2-chloro-3-[(2-methylquinolin-8-yl)oxy]naphthalene-1,4-dione] | 22200 ± 1030 nM
Cc1ccc2cccc(OC3=C(Cl)C(=O)c4cccnc4C3=O)c2n1 [Compound 11b, 6-chloro-7-[(2-methylquinolin-8-yl)oxy]quinoline-5,8-dione] | 2420 ± 130 nM
Cc1ccc2c(n1)C(=O)C(Oc1cccc3ccc(C)nc13)=C(Cl)C2=O [Compound 12b, 6-chloro-2-methyl-7-[(2-methylquinolin-8-yl)oxy]quinoline-5,8-dione] | 1900 ± 230 nM

tested on: H3 histone gene; experiment: Transcriptional activity of H3 histone gene in A549 cells (RT-QPCR); type: cell-based, human; details: 24 h, concentration equal to half of IC50
Protocol: as §2, §3

SMILES | Number of mRNA copies of the histone H3 gene
Cc1ccc2cccc(OC3=C(Cl)C(=O)c4ccccc4C3=O)c2n1 [Compound 14b, 2-chloro-3-[(2-methylquinolin-8-yl)oxy]naphthalene-1,4-dione] | reduce the amount of mRNA copies by half

tested on: CDKN1A; experiment: Transcriptional activity of CDKN1A gene in A549 cells (RT-QPCR); type: cell-based, human; details: 24 h, concentration equal to half of IC50
Protocol: as §2, §3

SMILES | CDKN1A expression (copies of mRNA)
Cc1ccc2cccc(OC3=C(Cl)C(=O)c4ccccc4C3=O)c2n1 [Compound 14b, 2-chloro-3-[(2-methylquinolin-8-yl)oxy]naphthalene-1,4-dione] | slight effect

tested on: SK-OV-3 cells; experiment: Cytotoxic activity, WST-1 assay, ovarian cancer SK-OV-3; type: cell-based, human; details: HFF-1 vs SK-OV-3
Summary of the method: as §1

SMILES | SI (IC50 HFF-1/IC50 cancer line) SK-OV-3
Cc1ccc2cccc(OC3=C(Cl)C(=O)c4ccccc4C3=O)c2n1 [Compound 14b, 2-chloro-3-[(2-methylquinolin-8-yl)oxy]naphthalene-1,4-dione] | 0.66
Cc1ccc2cccc(OC3=C(Cl)C(=O)c4cccnc4C3=O)c2n1 [Compound 11b, 6-chloro-7-[(2-methylquinolin-8-yl)oxy]quinoline-5,8-dione] | 15.40
Cc1ccc2c(n1)C(=O)C(Oc1cccc3ccc(C)nc13)=C(Cl)C2=O [Compound 12b, 6-chloro-2-methyl-7-[(2-methylquinolin-8-yl)oxy]quinoline-5,8-dione] | 6.81

same assay, conditions: Homo sapiens; ovarian cancer SK-OV-3, 72 h, WST-1

SMILES | IC50
Cc1ccc2cccc(OC3=C(Cl)C(=O)c4ccccc4C3=O)c2n1 [Compound 14b, 2-chloro-3-[(2-methylquinolin-8-yl)oxy]naphthalene-1,4-dione] | 16800 ± 590 nM
Cc1ccc2cccc(OC3=C(Cl)C(=O)c4cccnc4C3=O)c2n1 [Compound 11b, 6-chloro-7-[(2-methylquinolin-8-yl)oxy]quinoline-5,8-dione] | 1690 ± 30 nM
Cc1ccc2c(n1)C(=O)C(Oc1cccc3ccc(C)nc13)=C(Cl)C2=O [Compound 12b, 6-chloro-2-methyl-7-[(2-methylquinolin-8-yl)oxy]quinoline-5,8-dione] | 1490 ± 210 nM

tested on: MCF-7 cells; experiment: Cytotoxic activity, WST-1 assay, breast cancer MCF-7; type: cell-based, human; details: HFF-1 vs MCF-7
Summary of the method: as §1

SMILES | SI (IC50 HFF-1/IC50 cancer line) MCF-7
Cc1ccc2cccc(OC3=C(Cl)C(=O)c4ccccc4C3=O)c2n1 [Compound 14b, 2-chloro-3-[(2-methylquinolin-8-yl)oxy]naphthalene-1,4-dione] | 0.68
Cc1ccc2cccc(OC3=C(Cl)C(=O)c4cccnc4C3=O)c2n1 [Compound 11b, 6-chloro-7-[(2-methylquinolin-8-yl)oxy]quinoline-5,8-dione] | 12.34
Cc1ccc2c(n1)C(=O)C(Oc1cccc3ccc(C)nc13)=C(Cl)C2=O [Compound 12b, 6-chloro-2-methyl-7-[(2-methylquinolin-8-yl)oxy]quinoline-5,8-dione] | 5.70

same assay, conditions: Homo sapiens, MCF7; breast cancer MCF-7, 72 h, WST-1

SMILES | IC50
Cc1ccc2cccc(OC3=C(Cl)C(=O)c4ccccc4C3=O)c2n1 [Compound 14b, 2-chloro-3-[(2-methylquinolin-8-yl)oxy]naphthalene-1,4-dione] | 16300 ± 1080 nM
Cc1ccc2cccc(OC3=C(Cl)C(=O)c4cccnc4C3=O)c2n1 [Compound 11b, 6-chloro-7-[(2-methylquinolin-8-yl)oxy]quinoline-5,8-dione] | 2110 ± 80 nM
Cc1ccc2c(n1)C(=O)C(Oc1cccc3ccc(C)nc13)=C(Cl)C2=O [Compound 12b, 6-chloro-2-methyl-7-[(2-methylquinolin-8-yl)oxy]quinoline-5,8-dione] | 1780 ± 30 nM

tested on: HFF-1 cells; experiment: Cytotoxic activity, WST-1 assay, normal fibroblasts HFF-1; type: cell-based; details: Homo sapiens, normal fibroblasts HFF-1, 72 h
Summary of the method: as §1

SMILES | IC50
Cc1ccc2cccc(OC3=C(Cl)C(=O)c4ccccc4C3=O)c2n1 [Compound 14b, 2-chloro-3-[(2-methylquinolin-8-yl)oxy]naphthalene-1,4-dione] | 11.1 ± 1.62 µM
Cc1ccc2cccc(OC3=C(Cl)C(=O)c4cccnc4C3=O)c2n1 [Compound 11b, 6-chloro-7-[(2-methylquinolin-8-yl)oxy]quinoline-5,8-dione] | 26.1 ± 1.02 µM
Cc1ccc2c(n1)C(=O)C(Oc1cccc3ccc(C)nc13)=C(Cl)C2=O [Compound 12b, 6-chloro-2-methyl-7-[(2-methylquinolin-8-yl)oxy]quinoline-5,8-dione] | 10.2 ± 1.33 µM
